Measured values as given in patent publication US11807650B2, “NMDA receptor modulators and uses thereof” (Novartis AG, priority 2016, dated 2023).

Each compound was assayed against T1, human GRIN1 (transcript variant NR1-3) and GRIN2D expressed in Xenopus oocytes (Homo sapiens, UniProt O15399) (assay: NR2D oocyte potentiation assay (two-electrode voltage clamp)). Settings: 10 uM test compound; glutamate and glycine 10 μM each; holding potential −40 mV.
T1 construct: GenScript (GRIN2D synthesis) SC115601; host or cells: Xenopus oocytes injected with cRNA (1 GluN1 : 2 GluN2)
T1 sequence (O15399 28-1336, other chains not shown): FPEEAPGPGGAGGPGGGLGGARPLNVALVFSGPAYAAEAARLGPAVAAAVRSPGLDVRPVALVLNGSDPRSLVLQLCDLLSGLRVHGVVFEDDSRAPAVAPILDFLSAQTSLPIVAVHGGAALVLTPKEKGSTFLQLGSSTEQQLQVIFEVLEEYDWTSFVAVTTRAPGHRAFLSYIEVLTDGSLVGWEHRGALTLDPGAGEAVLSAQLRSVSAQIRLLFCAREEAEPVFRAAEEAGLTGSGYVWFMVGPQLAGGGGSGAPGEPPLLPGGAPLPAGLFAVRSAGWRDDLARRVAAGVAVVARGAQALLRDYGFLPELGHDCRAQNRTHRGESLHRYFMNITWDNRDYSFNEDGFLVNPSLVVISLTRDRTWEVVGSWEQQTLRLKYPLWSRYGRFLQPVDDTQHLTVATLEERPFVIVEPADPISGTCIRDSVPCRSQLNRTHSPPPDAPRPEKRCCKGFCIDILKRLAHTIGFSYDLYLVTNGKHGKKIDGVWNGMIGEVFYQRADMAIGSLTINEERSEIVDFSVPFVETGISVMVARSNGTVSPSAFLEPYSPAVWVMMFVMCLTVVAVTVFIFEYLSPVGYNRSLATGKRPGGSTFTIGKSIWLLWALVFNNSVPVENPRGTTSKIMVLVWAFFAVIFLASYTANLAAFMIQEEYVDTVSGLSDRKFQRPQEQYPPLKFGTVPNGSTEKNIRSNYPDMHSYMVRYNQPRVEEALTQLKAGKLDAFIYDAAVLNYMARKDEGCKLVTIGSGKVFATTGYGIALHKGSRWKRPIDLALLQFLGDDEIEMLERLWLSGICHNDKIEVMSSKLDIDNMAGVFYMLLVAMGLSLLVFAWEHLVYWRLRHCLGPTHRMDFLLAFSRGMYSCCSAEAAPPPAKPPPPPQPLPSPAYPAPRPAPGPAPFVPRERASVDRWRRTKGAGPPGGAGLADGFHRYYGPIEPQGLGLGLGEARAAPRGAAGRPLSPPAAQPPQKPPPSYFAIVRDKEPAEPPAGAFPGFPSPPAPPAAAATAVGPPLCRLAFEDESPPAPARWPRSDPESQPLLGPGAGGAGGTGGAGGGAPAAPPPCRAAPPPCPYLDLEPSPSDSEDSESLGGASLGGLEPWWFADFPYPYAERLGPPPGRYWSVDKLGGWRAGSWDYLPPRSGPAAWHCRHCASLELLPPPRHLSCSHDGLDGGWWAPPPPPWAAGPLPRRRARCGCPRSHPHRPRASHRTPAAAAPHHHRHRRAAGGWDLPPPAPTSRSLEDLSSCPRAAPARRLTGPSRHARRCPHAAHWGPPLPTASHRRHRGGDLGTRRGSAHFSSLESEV
Type: cell-based
How it was run: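 Xenopus oocytes were defolliculated with collagenase, then injected with 50 nL of cRNA encoding human GluN1 (NR1-3 variant) and GluN2D mixed 1:2 and kept 72 h at 16° C. Two-electrode voltage clamp at −40 mV recorded currents; after 10 μM glutamate plus 10 μM glycine reached plateau, test compound was added until a new plateau formed.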

SMILES	activation at 10 µM	NR2D Oocyte % Potentiation @ 10 uM
CN1CSc2nc(-c3cnc(C(C)(C)C)nc3)c(C#N)c(=O)n2C1 [Example 10, 8-(2-(tert-butyl)pyrimidin-5-yl)-3-methyl-6-oxo-3,4-dihydro-2H,6H-pyrimido[2,1-b][1,3,5]thiadiazine-7-carbonitrile]	10 to 100%	–
CC1CSc2nc(-c3ccc(C(C)(C)O)nc3)c(C#N)c(=O)n2C1 (stereo not drawn) [Example 85, 8-(6-(2-hydroxypropan-2-yl)pyridin-3-yl)-3-methyl-6-oxo-3,4-dihydro-2H,6H-pyrimido[2,1-b][1,3]thiazine-7-carbonitrile]	10 to 100%	–
CC(C)(C)c1ccc(-c2nc3n(c(=O)c2C#N)CC=CCS3)cn1 [Example 2, 2-(6-(tert-butyl)pyridin-3-yl)-4-oxo-6,9-dihydro-4H-pyrimido[2,1-b][1,3]thiazepine-3-carbonitrile]	10 to 100%	–
CC(C)(C)c1ncc(-c2nc3n(c(=O)c2C#N)CC(CF)CS3)cn1 (stereo not drawn) [Example 91, 8-(2-(tert-butyl)pyrimidin-5-yl)-3-(fluoromethyl)-6-oxo-3,4-dihydro-2H,6H-pyrimido[2,1-b][1,3]thiazine-7-carbonitrile]	500 to 1000%	–
CC(C)(C)c1ccc(-c2nc3ccccn3c(=O)c2C#N)cn1 [Example 19, 2-(6-(tert-butyl)pyridin-3-yl)-4-oxo-4H-pyrido[1,2-a]pyrimidine-3-carbonitrile]	100 to 500%	–
CC1CSc2nc(-c3cnc(C(C)(C)C)c(Br)c3)c(C#N)c(=O)n2C1 (stereo not drawn) [Example 58, 8-(5-bromo-6-(tert-butyl)pyridin-3-yl)-3-methyl-6-oxo-3,4-dihydro-2H,6H-pyrimido[2,1-b][1,3]thiazine-7-carbonitrile]	> 1000%	–
CSc1c(-c2ccc(C(C)(C)C)cc2)nc2n(c1=O)CCCC2 [Example 25, 2-(4-(tert-butyl)phenyl)-3-(methylthio)-6,7,8,9-tetrahydro-4H-pyrido[1,2-a]pyrimidin-4-one]	< 10%	–
CC1CSc2nc(-c3ccc(C4(C(F)(F)F)CC4)cc3)c(C#N)c(=O)n2C1 (stereo not drawn) [Example 46, 3-methyl-6-oxo-8-(4-(1-(trifluoromethyl)cyclopropyl)phenyl)-3,4-dihydro-2H,6H-pyrimido[2,1-b][1,3]thiazine-7-carbonitrile]	100 to 500%	–
CC1CSc2cc(-c3cnc(C(C)(C)C)nc3)c(C#N)c(=O)n2C1 (stereo not drawn) [Example 71, 8-(2-(tert-butyl)pyrimidin-5-yl)-3-methyl-6-oxo-3,4-dihydro-2H,6H-pyrido[2,1-b][1,3]thiazine-7-carbonitrile]	> 1000%	–
COC(=O)C1CSc2nc(-c3cnc(C(C)(C)C)nc3)c(C#N)c(=O)n2C1 (stereo not drawn) [Example 89, methyl 8-(2-(tert-butyl)pyrimidin-5-yl)-7-cyano-6-oxo-3,4-dihydro-2H,6H-pyrimido[2,1-b][1,3]thiazine-3-carboxylate]	100 to 500%	–
CC(C)(C)c1ncc(-c2nc3n(c(=O)c2C#N)CC(F)CS3)cn1 (stereo not drawn) [Example 17, 8-(2-tert-butylpyrimidin-5-yl)-3-fluoro-6-oxo-2H,3H, 4H,6H-pyrimido [2,1-b][1,3] thiazine-7-carbonitrile]	100 to 500%	–
CC(C)(C)c1ncc(-c2nc3n(c(=O)c2C#N)CCS3)cn1 [Example 4, 7-(2-(tert-butyl)pyrimidin-5-yl)-5-oxo-2,3-dihydro-5H-thiazolo[3,2-a]pyrimidine-6-carbonitrile]	100 to 500%	–
CC(C)(C)c1ccc(-c2cc3n(c(=O)c2C#N)CCCS3)cn1 [Example 70, 8-(6-(tert-butyl)pyridin-3-yl)-6-oxo-3,4-dihydro-2H,6H-pyrido[2,1-b][1,3]thiazine-7-carbonitrile]	> 1000%	–
CCN1CSc2nc(-c3ccc(C(C)(C)C)cc3)c(C#N)c(=O)n2C1 [Example 7, 8-(4-(tert-butyl)phenyl)-3-ethyl-6-oxo-3,4-dihydro-2H,6H-pyrimido[2,1-b][1,3,5]thiadiazine-7-carbonitrile]	10 to 100%	–
COC(=O)C1CSc2nc(-c3ccc(C(C)(C)C)nc3)c(C#N)c(=O)n2C1 (stereo not drawn) [Example 86, methyl 8-(6-(tert-butyl)pyridin-3-yl)-7-cyano-6-oxo-3,4-dihydro-2H,6H-pyrimido[2,1-b][1,3]thiazine-3-carboxylate]	100 to 500%	–
CCN1CSc2nc(-c3ccc(C(C)(C)C)nc3)c(C#N)c(=O)n2C1 [Example 9, 8-(6-(tert-butyl)pyridin-3-yl)-3-ethyl-6-oxo-3,4-dihydro-2H,6H-pyrimido[2,1-b][1,3,5]thiadiazine-7-carbonitrile]	10 to 100%	–
CC1CSc2nc(-c3ccc(N4CC(F)(F)C4)nc3)c(C#N)c(=O)n2C1 (stereo not drawn) [Example 56, 8-(6-(3,3-difluoroazetidin-1-yl)pyridin-3-yl)-3-methyl-6-oxo-3,4-dihydro-2H,6H-pyrimido[2,1-b][1,3]thiazine-7-carbonitrile]	–	Inhibitor
C[C@H]1CSc2cc(-c3cnc(C(C)(C)C)c(F)c3)c(C#N)c(=O)n2C1 [Example 106, (R)-8-(6-(tert-butyl)-5-fluoropyridin-3-yl)-3-methyl-6-oxo-3,4-dihydro-2H,6H-pyrido[2,1-b][1,3]thiazine-7-carbonitrile]	> 1000%	–
CC1(F)CN(c2ccc(-c3nc4n(c(=O)c3C#N)CCCS4)cn2)C1 [Example 53, 8-(6-(3-fluoro-3-methylazetidin-1-yl)pyridin-3-yl)-6-oxo-3,4-dihydro-2H,6H-pyrimido[2,1-b][1,3]thiazine-7-carbonitrile]	–	Inhibitor
CC(C)(C)c1ncc(-c2nc3n(c(=N)c2C#N)CCCS3)cc1F [Example 40, 8-(6-(tert-butyl)-5-fluoropyridin-3-yl)-6-imino-3,4-dihydro-2H,6H-pyrimido[2,1-b][1,3]thiazine-7-carbonitrile]	> 1000%	–
CC1CCn2c(nc(-c3ccc(C(C)(C)C)nc3)c(C#N)c2=O)S1 (stereo not drawn) [Example 93, 8-(6-(tert-butyl)pyridin-3-yl)-2-methyl-6-oxo-3,4-dihydro-2H,6H-pyrimido[2,1-b][1,3]thiazine-7-carbonitrile]	500 to 1000%	–
C[C@H]1CSc2nc(-c3ccc(C4(C)CC4)nc3)c(C#N)c(=O)n2C1 [Example 115, (R)-3-methyl-8-(6-(1-methylcyclopropyl)pyridin-3-yl)-6-oxo-3,4-dihydro-2H,6H-pyrimido[2,1-b][1,3]thiazine-7-carbonitrile]	100 to 500%	–
CC(C)(O)c1ccc(-c2nc3n(c(=O)c2C#N)CCCS3)cn1 [Example 83, 8-(6-(2-hydroxypropan-2-yl)pyridin-3-yl)-6-oxo-3,4-dihydro-2H,6H-pyrimido[2,1-b][1,3]thiazine-7-carbonitrile]	10 to 100%	–

Second part, the compound after the results:

activation at 10 µM	NR2D Oocyte % Potentiation @ 10 uM	SMILES
< 10%	–	CC1CSc2nc(-c3cccnc3C34CC(C3)C4)c(C#N)c(=O)n2C1 (stereo not drawn) [Example 149, 8-(2-(bicyclo[1.1.1]pentan-1-yl)pyridin-3-yl)-3-methyl-6-oxo-3,4-dihydro-2H,6H-pyrimido[2,1-b][1,3]thiazine-7-carbonitrile]
> 1000%	–	CC1(c2ncc(-c3cc4n(c(=O)c3C#N)CCCS4)cc2F)CC1 [Example 136, 8-[5-fluoro-6-(1-methyl-cyclopropyl)pyridin-3-yl]-6-oxo-2H,3H,4H,6H-pyrido [2,1-b][1,3] thiazine-7-carbonitrile]
100 to 500%	–	CC(C)(CF)c1ccc(-c2nc3n(c(=O)c2C#N)CCCS3)cn1 [Example 152, 8-(6-(1-fluoro-2-methylpropan-2-yl)pyridin-3-yl)-6-oxo-3,4-dihydro-2H,6H-pyrimido[2,1-b][1,3]thiazine-7-carbonitrile]
100 to 500%	–	CN(C)C(=O)C1CSc2nc(-c3cnc(C(C)(C)C)c(F)c3)c(C#N)c(=O)n2C1 (stereo not drawn) [Example 161, 8-(6-(tert-butyl)-5-fluoropyridin-3-yl)-7-cyano-N,N-dimethyl-6-oxo-3,4-dihydro-2H,6H-pyrimido[2,1-b][1,3]thiazine-3-carboxamide]
> 1000%	–	CC1CSc2cc(-c3cnc(C4(C)CC4)c(F)c3)c(C#N)c(=O)n2C1 (stereo not drawn) [Example 135, 8-(5-fluoro-6-(1-methylcyclopropyl)pyridin-3-yl)-3-methyl-6-oxo-3,4-dihydro-2H,6H-pyrido[2,1-b][1,3]thiazine-7-carbonitrile]
10 to 100%	–	CN(C)CC1CSc2nc(-c3cnc(C(C)(C)C)c(F)c3)c(C#N)c(=O)n2C1 (stereo not drawn) [Example 160, 8-(6-(tert-butyl)-5-fluoropyridin-3-yl)-3-((dimethylamino)methyl)-6-oxo-3,4-dihydro-2H,6H-pyrimido[2,1-b][1,3]thiazine-7-carbonitrile]
–	Inhibitor	C[C@H]1CSc2nc(-c3ccc(C(C)(C)N(C)C)nc3)c(C#N)c(=O)n2C1 [Example 133, (R)-8-(6-(2-(dimethylamino)propan-2-yl)pyridin-3-yl)-3-methyl-6-oxo-3,4-dihydro-2H,6H-pyrimido[2,1-b][1,3]thiazine-7-carbonitrile]
> 1000%	–	C[C@H]1CSc2cc(-c3ccc(C4(C)CC4)nc3)c(C#N)c(=O)n2C1 [Example 117, (R)-3-methyl-8-(6-(1-methylcyclopropyl)pyridin-3-yl)-6-oxo-3,4-dihydro-2H,6H-pyrido[2,1-b][1,3]thiazine-7-carbonitrile]
100 to 500%	–	CC(C)(C)c1ccc(-c2nc3n(c(=O)c2C#N)C[C@H](CO)CS3)cn1 [Example 130, (R)-8-(6-(tert-butyl)pyridin-3-yl)-3-(hydroxymethyl)-6-oxo-3,4-dihydro-2H,6H-pyrimido[2,1-b][1,3]thiazine-7-carbonitrile]
10 to 100%	–	CC1(c2ccc(-c3nc4n(c(=O)c3C#N)CCCS4)cn2)COC1 [Example 154, 8-(6-(3-methyloxetan-3-yl)pyridin-3-yl)-6-oxo-3,4-dihydro-2H,6H-pyrimido[2,1-b][1,3]thiazine-7-carbonitrile]
